According to ChEMBL document CHEMBL6103652, “Niacin Ester Derivative of Brefeldin A as a Potential Dual-Target Arf1/BMX Inhibitor for Bladder Cancer” (J Nat Prod, 2025):

Columns and labels:
T-24 [1] = test: Antiproliferative activity against human T24 cells assessed as inhibition of cell proliferation at 0.25 uM incubated for 72 to 120 hrs by MTT assay relative to control; format: functional; conditions: time 72-120 hrs
Huh-7 = test: Antiproliferative activity against human Huh-7 cells assessed as inhibition of cell proliferation measured after 72 hrs by MTT assay; format: functional, cell-based; conditions: Huh-7, 72 h
T-24 [2] = test: Antiproliferative activity against human T24 cells assessed as inhibition of cell proliferation measured after 72 hrs by MTT assay; format: functional, cell-based; conditions: T-24, 72 h
A549 = test: Antiproliferative activity against human A549 cells assessed as inhibition of cell proliferation measured after 72 hrs by MTT assay; format: functional, cell-based; conditions: A549, 72 h
Bel-7402 = test: Antiproliferative activity against human Bel-7402 cells assessed as inhibition of cell proliferation measured after 72 hrs by MTT assay; format: functional, cell-based; conditions: Bel-7402, 72 h
HCT-116 = test: Antiproliferative activity against human HCT-116 cells assessed as inhibition of cell proliferation measured after 72 hrs by MTT assay; format: functional, cell-based; conditions: HCT-116, 72 h
HT-29 = test: Antiproliferative activity against human HT-29 cells assessed as inhibition of cell proliferation measured after 72 hrs by MTT assay; format: functional, cell-based; conditions: HT-29, 72 h
L1210 = test: Antiproliferative activity against mouse L1210 cells assessed as inhibition of cell proliferation measured after 72 hrs by MTT assay; format: functional, cell-based; conditions: L1210, 72 h
[3] = Antiproliferative activity against […] MB49 cells assessed as inhibition of cell proliferation measured after 72 hrs by MTT assay; format: functional, cell-based; conditions: MB49, 72 h
[4] = Cytotoxicity against human LO2 cells measured after 72 hrs by MTT assay; format: toxicity, cell-based, L02

Row | Compound | inhibition at 0.25 µM (T-24 [1]) [%] | IC50 (Huh-7) [µM] | IC50 (T-24 [2]) [µM] | IC50 (A549) [µM] | IC50 (Bel-7402) [µM] | IC50 (HCT-116) [µM] | IC50 (HT-29) [µM] | IC50 (L1210) [µM] | IC50 [3] [µM] | IC50 at 72 h [4] [µM]
1 | C[C@H]1CCC/C=C/[C@@H]2C[C@H](OC(=O)c3cccnc3)C[C@H]2[C@H](OC(=O)c2cccnc2)/C=C/C(=O)O1 | < 40 |  |  |  |  |  |  |  |  | 
2 | C[C@H]1CCC/C=C/[C@@H]2C[C@H](OC(=O)c3cccnc3)C[C@H]2[C@H](O)/C=C/C(=O)O1 | < 40 |  |  |  |  |  |  |  |  | 
3 | C[C@H]1CCC/C=C/[C@@H]2C[C@H](O)C[C@H]2[C@H](O)/C=C/C(=O)O1 [BREFELDIN A] |  | 0.18 | 0.08 | 0.06 | 0.12 | 0.1 | 0.07 | 1.57 | 2.16 | 0.14
4 | COc1cccc2c1C(=O)c1c(O)c3c(c(O)c1C2=O)C[C@@](O)(C(=O)CO)C[C@@H]3O[C@H]1C[C@H](N)[C@H](O)[C@H](C)O1 [DOXORUBICIN] |  | 0.62 | 0.25 | 0.44 |  | < 1 | 0.42 | < 1 | > 1 | 
